Experimental data as given in PubChem BioAssay (NCI).
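Each compound was tested at five concentrations against cells in 96-well plates for 48 hours. TGI: total growth inhibition.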

Legend:
Test in all cases: growth of human tumour cells (NCI), 48 h
A549 NSCLC = tested on: A549 NSCLC
BT-549 breast = tested on: BT-549 breast
CAKI-1 renal = tested on: CAKI-1 renal
CCRF-CEM leukemia = tested on: CCRF-CEM leukemia
HS 578T breast = tested on: HS 578T breast
LOX IMVI melanoma = tested on: LOX IMVI melanoma
MCF7 breast = tested on: MCF7 breast
MDA-MB-435 = tested on: MDA-MB-435
NCI/ADR-RES ovarian = tested on: NCI/ADR-RES ovarian
OVCAR-3 ovarian = tested on: OVCAR-3 ovarian
SF-295 CNS = tested on: SF-295 CNS
SF-539 CNS = tested on: SF-539 CNS
SK-MEL-28 melanoma = tested on: SK-MEL-28 melanoma
SK-OV-3 ovarian = tested on: SK-OV-3 ovarian
SNB-75 CNS = tested on: SNB-75 CNS
TK-10 renal = tested on: TK-10 renal
U251 CNS = tested on: U251 CNS
UACC-62 melanoma = tested on: UACC-62 melanoma
UO-31 renal = tested on: UO-31 renal

Structure (SMILES)	TGI (A549 NSCLC) [µM]	TGI (BT-549 breast) [µM]	TGI (CAKI-1 renal) [µM]	TGI (CCRF-CEM leukemia) [µM]	TGI (HS 578T breast) [µM]	TGI (LOX IMVI melanoma) [µM]	TGI (MCF7 breast) [µM]	TGI (MDA-MB-435) [µM]	TGI (NCI/ADR-RES ovarian) [µM]	TGI (OVCAR-3 ovarian) [µM]	TGI (SF-295 CNS) [µM]	TGI (SF-539 CNS) [µM]	TGI (SK-MEL-28 melanoma) [µM]	TGI (SK-OV-3 ovarian) [µM]	TGI (SNB-75 CNS) [µM]	TGI (TK-10 renal) [µM]	TGI (U251 CNS) [µM]	TGI (UACC-62 melanoma) [µM]	TGI (UO-31 renal) [µM]
CN(Cc1cnc2nc(N)nc(N)c2n1)c1ccc(C(=O)NC(CCC(=O)NCCC(P(=O)(O)O)P(=O)(O)O)C(=O)O)cc1 (stereo not given)	> 100	> 100	> 100	> 100	> 100	> 100	> 100	> 100	> 100	> 100	> 100	> 100	> 100	> 100	> 100	> 100	> 100	> 100	> 100
CC1(c2cccs2)CC(c2cccs2)=C(C#N)C(=C(C#N)C#N)N1 (stereo not given)	48.6	57.5	37	27.9	69.5	32.4	39.1	31.8	49.5	32.1	32.6	70	50.2	37.1	33.2	36.5	31	29.6	34.8
Nc1ccc(-c2nc3cc(F)ccc3s2)cc1Cl	> 100	> 63.2	> 100	> 100	> 90.4	> 100	1.35	> 100	> 100	45.6	> 72.3	45.1	> 100	52.6	51.8	0.176	55.4	> 100	> 100
C[N+](CCCl)(CCCl)Cc1cccc2cccc([N+](=O)[O-])c12	> 100	> 100	> 100	> 100	> 100	> 100	> 100	> 100	> 100	> 100	> 100	> 100	> 100	> 100	> 100	> 100	> 100	> 100	> 100
O=C(O)CC1NC(/C(=C/c2ccccc2)NC(=O)c2ccccc2)OC1=O (stereo not given)	> 100	44.2	> 100	86.6	> 100	36	> 100	67	56.4	51.2	> 100	44.2	52.4	> 100	74	> 100	34.5	57.9	59
CN1CCN(C(=O)CCNC(=O)Cc2ccc(C(=O)c3ccccc3)cc2)CC1	> 100	> 100	> 100	> 100	> 100	> 100	> 100	56	> 100	> 100	> 100	> 100	> 100	> 100	> 100	> 100	> 100	> 100	> 100
CCN(CC)CCC(=O)/C=C/c1ccccc1	39.9	21.9	14.1	> 47.2	39.9	7.16	10.6	23.2	55.1	12.1	40.1	37.5	30.8		28.8	32.3	25.6		25.8
Cc1cc2c(cc1Cl)SC(NS(=O)(=O)c1ccc(Cl)cc1)=NS2(=O)=O	> 100	> 100	> 100	> 100	> 100	> 100	> 100	> 100	> 100	> 100	88.3	73.9	> 100	> 100	> 100	69.5	> 100	> 100	> 100
N#Cc1c(-c2ccc(Cl)cc2)c2c([nH]c1=O)-c1ccccc1SC2	> 100	> 100	> 100	88.6	> 100	73.9	> 100	> 100	> 100	92.7	> 100	68	> 100	> 100	69.5	52.9	> 100	> 100	> 100
C=C1C(=O)C[C@H]2C(=C)C(=O)O[C@@H]2C2C1CC[C@@]2(C)O (stereo not given in full)	> 100	44	40.3	> 100	> 100	68.8	36.1	> 100	64.2	35.8	> 100	> 100	85.5	> 100	> 100	41.4	> 100	31.2	74.2
CCCC(=O)n1[nH]c(=O)n(-c2ccc(Cl)cc2)c1=O	> 100	> 100	> 100	> 100	> 100	> 100	> 100	> 100	> 100	> 100	> 100		> 100	> 100	> 100	> 100	> 100	> 100	> 100
COc1cc(C2SCC(=O)N2c2ccccn2)cc(OC)c1OC (stereo not given)	> 100	> 100	> 100	> 100	> 100	> 100	> 100	77.6	> 100	> 100	> 100	> 100	> 100	> 100		> 100	> 100	> 100	> 100
C=C(CCC/C(C)=C/C=C/[C@]1(C)CCCc2ccoc21)CC(=O)O	> 100	> 100	> 100	> 100	> 100	> 100	> 100	> 100	> 100	> 100	> 100	> 100	> 100	> 100	> 100	> 100	> 100	> 100	> 100
O=c1cnn(C2OC(C(O)CO)C(O)C2O)c(=O)[nH]1 (stereo not given)	> 100	> 100	> 100	> 100	> 100	> 100	> 100	> 100	> 100	> 100		> 100	> 100	> 100	> 100	> 100	> 100	> 100	> 100
CCCCCCCCCC1(N=[N+]=[N-])C(=O)c2ccccc2N(C)C1=O (stereo not given)	95.1	74.6	> 100	> 100	83.8	34.3	> 100	6.88	> 100	56.4	> 100	> 100	78.8	> 100	> 100	> 100	6.31	80.5	> 100
N=C1/C(=C/c2ccc(F)cc2)C(=O)N=C2SC=NN12	> 100	> 100	> 100	> 100	> 100	> 100	> 100	> 100	> 100	> 100	> 100	> 100	> 100	> 100	> 100	> 100	> 100	> 100	> 100
COC(=O)CC(C#N)(OP1(=O)OC(c2ccccc2)C(C)N1C)c1ccccc1 (stereo not given)	> 100	> 100	69.3	38.7	> 100	53.4	> 100	53.7	> 100	42.6	> 100	> 100	> 100	> 100	> 100	> 100	87.3	56.9	27.2
OC1[C@@H]2[C@@H](O)[C@H](O)[C@@H](O)N2C[C@@H]1O (stereo not given in full)	> 100	> 100	> 100	> 100	> 100	> 100	> 100	> 100	> 100	> 100	> 100	> 100	> 100	> 100	> 100	> 100	> 100	> 100	> 100
O=c1cc(N2CCOCC2)[nH]c(=O)n1-c1ccc(F)cc1		> 100	> 100	> 100	> 100	> 100	> 100	> 100	> 100	> 100	> 100	> 100	> 100	> 100	> 100	> 100	> 100	> 100	
O=C1C2CC=CCC2C(=O)N1n1c(Cc2ccc(Cl)cc2)n[nH]c1=O (stereo not given)	> 100	> 100	> 100	> 100	> 100	> 100	> 100	> 100	> 100	> 100	> 100		> 100	> 100	> 100	> 100	> 100	> 100	> 100
CCCC[C@@H]1CCN2C[C@@H](O)[C@@H](O)[C@@H]2[C@H]1O	> 100	> 100	> 100	> 100	> 100	> 100	> 100	> 100	> 100	> 100	> 100	> 100	> 100	> 100	> 100		> 100	> 100	> 100
CNC(C#N)c1ccc(OC)cc1 (stereo not given)	> 100	> 100	> 100	> 100	> 100	> 100	> 100	> 100	> 100	> 100	> 100	> 100	> 100	> 100		> 100	> 100	> 100	> 100
OC1(C(F)(F)F)OCCN=C1C(F)(F)F (stereo not given)	> 100	> 100	> 100	> 100	81.3	> 100	> 100	> 100	> 100	> 100	> 100		> 100	> 100	> 100	> 100	> 100	> 100	> 100
CCOC(=O)C1=C(C)N(Cc2ccc(Cl)cc2Cl)C2(O)C=CC(=O)C3C(=O)N(c4ccccc4)C(=O)C132 (stereo not given)	5.74	3.27	9.36	1.4	36.3	2.38	5.11	7.24	11.1	3.44	11.2	5.38	3.53			8.09	3.8	3.74	5
COC(=O)c1ccc(C(=O)NC(Cc2ccc(Oc3cc(CC(NC(=O)c4ccccc4C(=O)OC)C(=O)OC)ccc3OC)cc2)C(=O)OC)cc1 (stereo not given)	> 100	> 100	> 100	> 100	39.3	> 100	> 100	> 100	> 100	> 100	> 100	> 100	> 100	> 100	> 100	> 100			> 100
